One assay has as its system D-336MG. Briefly: cells. Format: functional, cell-based, Homo sapiens.
In another assay the test system is IM-9. Briefly: SANGER: Inhibition of human IM-9 cell growth in a cell viability assay. The class given is functional, cell-based.
The test system of the next assay is DG-75. Briefly: cells. The class given is functional, cell-based, Homo sapiens.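 Note: growth inhibition of DG-75 cells, read out with a cell viability assay.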
For the next assay, the system named is CMK. The assay is described as follows: cells. Format: functional, cell-based, Homo sapiens.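 Note: growth inhibition of CMK cells, read out as cell viability.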
Another assay concerns MDA-MB-134-VI. Briefly: cells. Format: functional, cell-based, Homo sapiens.
Another assay relates to EC-GI-10. The assay is described as follows: cells. Format: functional, cell-based, Homo sapiens.
In the next assay the test system is BL-41. The assay is described as follows: cells. Format: functional, cell-based. Conditions: Homo sapiens.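 Note: growth inhibition of human BL-41 cells, read out with a cell viability assay.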
A further assay concerns NCI-H524. Briefly: cells. The class given is functional, cell-based, Homo sapiens.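 Note: growth inhibition of human NCI-H524 cells, read out through a cell viability assay.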
A further assay relates to IMR-5. Briefly: cells. The class given is functional, cell-based, Homo sapiens.
The subject of another assay is NCI-H510A. The assay is described as follows: cells. The class given is functional, cell-based, Homo sapiens.
The test system of another assay is LC4-1. The assay is described as follows: cells. The class given is functional, cell-based, Homo sapiens.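 Note: growth inhibition of LC4-1 cells, read out with a cell viability assay.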
The subject of the next assay is REH. The assay is described as follows: cells. Format: functional, cell-based, Homo sapiens.
A further assay deals with KP-N-YN. Briefly: cells. Format: functional, cell-based. The following applies: Homo sapiens.
The next assay has as its system EGI-1. The assay is described as follows: cells. Format: functional, cell-based. Conditions: Homo sapiens.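 Note: cell viability readout used to gauge growth inhibition of EGI-1 cells.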
Another assay deals with GP5d. Briefly: cells. The class given is functional, cell-based. Conditions: Homo sapiens.
For another assay, the system named is MKN-28. Briefly: cells. The following applies: Homo sapiens. Format: functional, cell-based.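 Note: cell viability assay read-out, IC50 reflects suppression of growth of human MKN-28 cells.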
The next assay has as its system NCI-H630. The assay is described as follows: cells. The class given is functional, cell-based. Conditions: Homo sapiens.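 Note: growth inhibition of NCI-H630 cells, read out with a cell viability assay.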
For a further assay, the system named is HEC-1. The assay is described as follows: cells. The class given is functional, cell-based. The following applies: Homo sapiens.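 Note: growth inhibition of the cell line, read out with a cell viability assay.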
For the next assay, the system named is NCI-H460. The assay is described as follows: cells. The class given is functional, cell-based. Conditions: Homo sapiens.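 Note: cell viability assay scoring growth inhibition of human NCI-H460 cells.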
Setting [1] is: Homo sapiens, IMR-5, read-out: IC50.

For four compounds, IC50 results are on record in ChEMBL document CHEMBL1201861, “Genomics of Drug Sensitity in Cancer screening data, Wellcome Trust Sanger Institute”.

Values joined by “and” are separate entries in the source; they are usually repeats but may differ in a detail not shown here. Identical values can stand only once. Where a SMILES comes first, the peptide text is derived from it. The star is where a group is joined. Cbz = O=C(OCc1ccccc1)* A value given as a limit tells only on which side of the number the result lay.

The term IC50 denotes the concentration at which inhibition is half-maximal.

Description for BL-41: SANGER: Inhibition of human BL-41 cell growth in a cell viability assay.
Description for CMK: SANGER: Inhibition of human CMK cell growth in a cell viability assay.
Description for D-336MG: SANGER: Inhibition of human D-336MG cell growth in a cell viability assay.
Description for DG-75: SANGER: Inhibition of human DG-75 cell growth in a cell viability assay.
Description for EC-GI-10: SANGER: Inhibition of human EC-GI-10 cell growth in a cell viability assay.
Description for EGI-1: SANGER: Inhibition of human EGI-1 cell growth in a cell viability assay.
Description for GP5d: SANGER: Inhibition of human GP5d cell growth in a cell viability assay.
Description for HEC-1: SANGER: Inhibition of human HEC-1 cell growth in a cell viability assay.
Description for IMR-5: SANGER: Inhibition of human IMR-5 cell growth in a cell viability assay.
Description for KP-N-YN: SANGER: Inhibition of human KP-N-YN cell growth in a cell viability assay.
Description for LC4-1: SANGER: Inhibition of human LC4-1 cell growth in a cell viability assay.
Description for MDA-MB-134-VI: SANGER: Inhibition of human MDA-MB-134-VI cell growth in a cell viability assay.
Description for MKN-28: SANGER: Inhibition of human MKN28 cell growth in a cell viability assay.
Description for NCI-H460: SANGER: Inhibition of human NCI-H460 cell growth in a cell viability assay.
Description for NCI-H510A: SANGER: Inhibition of human NCI-H510A cell growth in a cell viability assay.
Description for NCI-H524: SANGER: Inhibition of human NCI-H524 cell growth in a cell viability assay.
Description for NCI-H630: SANGER: Inhibition of human NCI-H630 cell growth in a cell viability assay.
Description for REH: SANGER: Inhibition of human REH cell growth in a cell viability assay.

Turning to `COc1ccc(N(C(=O)Oc2c(C)cccc2C)c2ccnc(Nc3ccc(N4CCN(C)CC4)cc3)n2)c(OC)c1`, the IC50 was 46.8 nM in the assay with D-336MG (Homo sapiens, D-336MG); more than 5120 nM with IM-9 (Homo sapiens, IM-9); more than 5120 nM in the assay with DG-75 (Homo sapiens, DG-75); more than 5120 nM in the assay with CMK (Homo sapiens, CMK); more than 5120 nM with MDA-MB-134-VI (Homo sapiens, MDA-MB-134-VI); more than 5120 nM with EC-GI-10 (Homo sapiens, EC-GI-10). Further, the IC50 was 1000 nM with BL-41; more than 5120 nM in the assay with NCI-H524 (Homo sapiens, NCI-H524); more than 5120 nM in the assay on IMR-5 (setting [1]); more than 5120 nM in the assay on NCI-H510A (Homo sapiens, NCI-H510A); more than 5120 nM in the assay with LC4-1 (Homo sapiens, LC4-1); more than 5120 nM in the assay with REH (Homo sapiens, REH).
In the case of `Cc1ccc(NC(=O)c2ccc(CN3CCN(C)CC3)cc2)cc1Nc1nccc(-c2cccnc2)n1` [IMATINIB], the IC50 was more than 2000 nM in the assay on D-336MG (Homo sapiens, D-336MG); more than 2000 nM in the assay with IM-9 (Homo sapiens, IM-9); more than 2000 nM in the assay on DG-75 (Homo sapiens, DG-75); more than 2000 nM with CMK (Homo sapiens, CMK); more than 2000 nM in the assay with MDA-MB-134-VI (Homo sapiens, MDA-MB-134-VI); more than 2000 nM with EC-GI-10 (Homo sapiens, EC-GI-10). Moreover, the IC50 is more than 2000 nM in the assay on BL-41; more than 2000 nM in the assay on NCI-H524 (Homo sapiens, NCI-H524); more than 2000 nM with IMR-5 (Homo sapiens, IMR-5); more than 2000 nM in the assay on NCI-H510A (Homo sapiens, NCI-H510A); more than 2000 nM with LC4-1 (Homo sapiens, LC4-1); more than 2000 nM with REH (Homo sapiens, REH).
As for `CC(C)C[C@@H](C=O)NC(=O)[C@H](CC(C)C)NC(=O)[C@H](CC(C)C)NC(=O)OCc1ccccc1` [MG-132] (Cbz-Leu-Leu-Leu-aldehyde), the IC50 in the assay with KP-N-YN was more than 1000 nM; in the assay on D-336MG (d-336mg), more than 1000 nM; with IM-9 (im-9), more than 1000 nM; with DG-75 (Homo sapiens, DG-75), more than 1000 nM; in the assay with DG-75 (dg-75), more than 1000 nM; in the assay on CMK (cmk), 311 nM and > 1000 nM. In addition, the IC50 was more than 1000 nM with MDA-MB-134-VI (mda-mb-134-vi); more than 1000 nM in the assay with EC-GI-10 (Homo sapiens, EC-GI-10); more than 1000 nM with EC-GI-10 (ec-gi-10); more than 1000 nM with NCI-H524 (Homo sapiens, NCI-H524); more than 1000 nM in the assay on NCI-H524 (nci-h524); more than 1000 nM in the assay on IMR-5 (setting [1]). For the same compound, the 50% inhibitory concentration (IC50) was more than 1000 nM in the assay with IMR-5 (imr-5, read-out: IC50); more than 1000 nM with NCI-H510A (Homo sapiens, NCI-H510A); more than 1000 nM in the assay with NCI-H510A (nci-h510a); 436 nM in the assay with LC4-1 (Homo sapiens, LC4-1); 747 nM with LC4-1 (lc4-1); more than 1000 nM in the assay with REH (reh).
Take `CO[C@@H]1[C@H](N(C)C(=O)c2ccccc2)C[C@H]2O[C@]1(C)n1c3ccccc3c3c4c(c5c6ccccc6n2c5c31)C(=O)NC4` [MIDOSTAURIN]: the IC50 in the assay on IM-9 (Homo sapiens, IM-9) is more than 512 nM; in the assay with EGI-1 it was more than 512 nM; in the assay with GP5d it was more than 512 nM; in the assay with MKN-28, more than 512 nM; with NCI-H630, more than 512 nM; with HEC-1, more than 512 nM. In the assay with NCI-H460, this compound yielded an IC50 of more than 512 nM.
